From ChEMBL document CHEMBL1201862, “PubChem BioAssay data set” (2004)
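1) Cells in 96-well plates. 2) Compound, 48 h, 5 concentrations. 3) Linear interpolation between surrounding doses. 4) Unreached endpoint = highest concentration. At the GI50, growth is halved.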 The source made the active and inactive calls. Cut-off read from the data, not from the text of the source: active = GI50 up to about 1.1 µM and inactive = higher.

What was measured:
Assay in all cases: NCI-60 cell line screen, 48 h
[1] = system: HCT-15
[2] = system: OVCAR-8
[3] = system: 786-0
[4] = system: SK-OV-3
[5] = system: IGROV-1
[6] = system: K562
[7] = system: HCT-116
[8] = system: HT-29
[9] = system: NCI-H23
[10] = system: M14
[11] = system: UO-31
[12] = system: RPMI-8226
[13] = system: T47D
[14] = system: A498
[15] = system: MDA-MB-435
[16] = system: OVCAR-3
[17] = system: BT-549
[18] = system: SK-MEL-2
[19] = system: LOX IMVI

SMILES | GI50 [1] [µM] | GI50 [2] | GI50 [3] | GI50 [4] | GI50 [5] | GI50 [6] | GI50 [7] | GI50 [8] | GI50 [9] | GI50 [10] | GI50 [11] | GI50 [12] | GI50 [13] | GI50 [14] | GI50 [15] | GI50 [16] | GI50 [17] | GI50 [18] | GI50 [19]
COc1cc(/C=C/c2ccc(O)c(OC)c2)cc(OC)c1 | 14.3 | 37.5 µM (inactive) | 45.5 µM (inactive) | 26.9 µM (inactive) | 39.9 µM (inactive) | 26.4 µM (inactive) | 27.5 µM (inactive) | 30.8 µM (inactive) | 26.5 µM (inactive) | 21 µM (inactive) | 20 µM (inactive) | 30.3 µM (inactive) | 33.9 µM (inactive) | 21.6 µM (inactive) |  |  |  |  | 
Clc1ccc(-c2nc3ccc4ccccc4c3c3c2CCCC3)cc1 | 62.8 | > 100 µM (inactive) | 75.2 µM (inactive) | > 100 µM (inactive) | > 100 µM (inactive) | > 100 µM (inactive) | 50.5 µM (inactive) | 44.6 µM (inactive) | > 100 µM (inactive) | > 100 µM (inactive) | > 100 µM (inactive) | > 100 µM (inactive) |  | > 100 µM (inactive) | > 100 µM (inactive) | > 100 µM (inactive) | > 100 µM (inactive) | > 100 µM (inactive) | 
Cc1ccc(-n2cc(-c3ccc(Cl)cc3)c3c2N=CN2N=C(c4cccs4)NC32)cc1 (centres undefined) | 51.8 | 6.46 µM (inactive) | 4.28 µM (inactive) | 14.9 µM (inactive) | 14.2 µM (inactive) | 11.7 µM (inactive) | 5.13 µM (inactive) | 23 µM (inactive) | 15.3 µM (inactive) | 18.7 µM (inactive) | 7.64 µM (inactive) |  |  | 14.7 µM (inactive) | 38.7 µM (inactive) | 9.73 µM (inactive) | 20.1 µM (inactive) | 13.1 µM (inactive) | 15.7 µM (inactive)
NCCN(CCN(C(=O)Nc1ccccc1)c1ccccc1)C(=O)Nc1ccccc1 | 24.5 | 23 µM (inactive) | 24.9 µM (inactive) | 20 µM (inactive) | 17.6 µM (inactive) | 44.4 µM (inactive) | 16.3 µM (inactive) | 28.5 µM (inactive) | 24.3 µM (inactive) | 21.3 µM (inactive) | 15.3 µM (inactive) | 27.5 µM (inactive) | 20.7 µM (inactive) | 18.3 µM (inactive) |  |  | 22.7 µM (inactive) | 19.2 µM (inactive) | 19.4 µM (inactive)
O=c1c2ccccc2nc(N/N=C/c2ccc(Cl)cc2)n1-c1ccccc1 | 89.9 | 77.1 µM (inactive) | > 100 µM (inactive) | > 100 µM (inactive) | > 100 µM (inactive) | > 100 µM (inactive) | > 100 µM (inactive) | > 100 µM (inactive) | > 100 µM (inactive) | > 100 µM (inactive) | 62.4 µM (inactive) |  | 82.6 µM (inactive) | > 100 µM (inactive) | > 100 µM (inactive) | > 100 µM (inactive) |  | 17.5 µM (inactive) | > 100 µM (inactive)
[O-][S+](Nc1ccccc1)c1cccc(Cl)c1 (centres undefined) | 29.6 | 77.1 µM (inactive) | > 100 µM (inactive) |  | 46.3 µM (inactive) | 37.3 µM (inactive) | 45.2 µM (inactive) | > 100 µM (inactive) | 42.7 µM (inactive) | > 100 µM (inactive) | 60.4 µM (inactive) | 43.5 µM (inactive) |  |  | 72.1 µM (inactive) | > 100 µM (inactive) |  |  | 60.5 µM (inactive)
CC1CNC(NS(=O)(=O)c2cc(C(=O)Nc3ccc(Cl)cc3)c(Cl)cc2S)=NN1 (centres undefined) | 20.8 | 25.4 µM (inactive) | 42.1 µM (inactive) | 59.4 µM (inactive) | 36.1 µM (inactive) | 31.1 µM (inactive) | 27 µM (inactive) | 36.3 µM (inactive) | 27.4 µM (inactive) | 21.7 µM (inactive) | 49.7 µM (inactive) | 28.9 µM (inactive) |  | 18.1 µM (inactive) | 23.4 µM (inactive) | 28.2 µM (inactive) | 53.7 µM (inactive) | 28.9 µM (inactive) | 27.4 µM (inactive)
COc1cc(S(=O)(=O)Nc2nc(-c3ccc(N4C(=O)CSC4c4cccs4)cc3)cs2)ccc1Cl (centres undefined) | 22.8 | 33 µM (inactive) | 81.1 µM (inactive) | > 100 µM (inactive) | 34.3 µM (inactive) | 31 µM (inactive) | 45.2 µM (inactive) | > 100 µM (inactive) | 33.2 µM (inactive) | > 100 µM (inactive) | 22.6 µM (inactive) |  | 36.8 µM (inactive) | > 100 µM (inactive) | > 100 µM (inactive) | 33.7 µM (inactive) |  | 57.5 µM (inactive) | 21.8 µM (inactive)
COc1cc(C2CC(C)(N3CCOCC3)Oc3cc4c(cc32)OCO4)cc(OC)c1OC (centres undefined) | 0.136 | 0.531 µM (active) | 0.157 µM (active) | 0.482 µM (active) | 0.222 µM (active) | 0.026 µM (active) | 0.129 µM (active) | 0.131 µM (active) | 0.209 µM (active) | 0.421 µM (active) | 12.2 µM (inactive) | 0.0263 µM (active) |  |  | < 0.01 µM (active) | 0.207 µM (active) | > 100 µM (inactive) |  | 0.136 µM (active)
CCOP(=O)(OCC)C1CC(n2cc(C)c(=O)[nH]c2=O)OC1CO (centres undefined) | > 100 | > 100 µM (inactive) | > 100 µM (inactive) |  | > 100 µM (inactive) | > 100 µM (inactive) | > 100 µM (inactive) | > 100 µM (inactive) | 99.1 µM (inactive) | > 100 µM (inactive) | > 100 µM (inactive) | > 100 µM (inactive) | > 100 µM (inactive) | > 100 µM (inactive) |  | > 100 µM (inactive) | > 100 µM (inactive) | > 100 µM (inactive) | > 100 µM (inactive)
CN(C)c1ccc(-c2c(C#N)c(S)n(NS(=O)(=O)c3ccccc3)c(=O)c2C#N)cc1 | 20.5 | 16.6 µM (inactive) | 17.1 µM (inactive) | 59.6 µM (inactive) | 15.8 µM (inactive) | 30.7 µM (inactive) | 27.2 µM (inactive) |  | 30.8 µM (inactive) | 27.6 µM (inactive) | 25.5 µM (inactive) | 13.9 µM (inactive) |  | 22.3 µM (inactive) | 21.5 µM (inactive) | 36.6 µM (inactive) | 21.1 µM (inactive) | 35.9 µM (inactive) | 22.1 µM (inactive)
COC(CC1(/C=C/O[Si](C(C)C)(C(C)C)C(C)C)C(=O)N(C)c2ccccc21)OC (centres undefined) | 40.9 | 54.3 µM (inactive) | 18.4 µM (inactive) | 35.7 µM (inactive) |  | 51.5 µM (inactive) | 28.5 µM (inactive) |  | 42.1 µM (inactive) | 94.8 µM (inactive) | 68.2 µM (inactive) | 15.3 µM (inactive) | 55.3 µM (inactive) | > 100 µM (inactive) | 76.2 µM (inactive) | > 100 µM (inactive) |  | > 100 µM (inactive) | 33.4 µM (inactive)
O=C1CCCC2=C1C(c1ccc3c(c1)OCO3)Nc1ccc3ccccc3c12 (centres undefined) | > 100 | 87.5 µM (inactive) | > 100 µM (inactive) | > 100 µM (inactive) | > 100 µM (inactive) |  | > 100 µM (inactive) | > 100 µM (inactive) | > 100 µM (inactive) | > 100 µM (inactive) | > 100 µM (inactive) | > 100 µM (inactive) |  | > 100 µM (inactive) | > 100 µM (inactive) | > 100 µM (inactive) | > 100 µM (inactive) | > 100 µM (inactive) | 
O=C(O)c1cc2ccccc2c(/N=N\c2cc(C(F)(F)F)ccc2Cl)c1O | 83.8 | 60.8 µM (inactive) | 56.1 µM (inactive) | > 100 µM (inactive) | 95.9 µM (inactive) | 27 µM (inactive) | 53.8 µM (inactive) | 77.6 µM (inactive) | 56.5 µM (inactive) | > 100 µM (inactive) | 33.4 µM (inactive) | 17.8 µM (inactive) | 48.8 µM (inactive) |  | > 100 µM (inactive) | 22.5 µM (inactive) |  | 25.4 µM (inactive) | 
c1ccc(NC2(c3nnnn3C3CCCCC3)CCNCC2)cc1 | 21.2 | 28.6 µM (inactive) | 15 µM (inactive) | 26 µM (inactive) | 32.7 µM (inactive) |  | 15.2 µM (inactive) | 16.7 µM (inactive) | 23.8 µM (inactive) | 17.6 µM (inactive) | 11.9 µM (inactive) | 22.9 µM (inactive) | 23.1 µM (inactive) | 18 µM (inactive) | 19.4 µM (inactive) |  |  |  | 15.7 µM (inactive)
O=[N+]([O-])c1ccc2c(/N=N/c3c(O)ccc4ccccc34)c(O)cc(S(=O)(=O)O)c2c1 | 4.62 | 5.28 µM (inactive) | 11.7 µM (inactive) | 36.4 µM (inactive) | 4.89 µM (inactive) | 9.16 µM (inactive) | 14.4 µM (inactive) | 25.4 µM (inactive) | 20.9 µM (inactive) | 4.07 µM (inactive) | 2.45 µM (inactive) | 8.26 µM (inactive) |  |  | 7.98 µM (inactive) | 1.69 µM (inactive) | 26.9 µM (inactive) | 14.2 µM (inactive) | 17.4 µM (inactive)
CC/C=C/c1cc2c(cc1O)CCC1C2CC[C@@]2(C)C1CC[C@@H]2O (some centres undefined) | 4.33 | 4.31 µM (inactive) | 2.34 µM (inactive) | 2.43 µM (inactive) | 4.37 µM (inactive) | 1.28 µM (inactive) | 1.02 µM (active) | 7.93 µM (inactive) | 3.33 µM (inactive) | 1.17 µM (inactive) | 6.03 µM (inactive) | 1.89 µM (inactive) | 2.86 µM (inactive) | 2.56 µM (inactive) | 0.246 µM (active) | 0.265 µM (active) |  | 1.21 µM (inactive) | 0.904 µM (active)
